According to patent US7947834B2, “Substituted quinoxalines, their preparation and their therapeutical use as 11βHSD1 modulators” (Sanofi-Aventis, priority 2006, dated 2011):
Counter-ions that a name gives are not always drawn.

Legend:
11βHSD1 in the eyes = biological target: T1, 11βHSD1 in the eyes (Homo sapiens, UniProt P28845); conditions: healthy volunteers, after treating for seven days; cited from earlier work
T1 construct: host or cells: eyes of healthy volunteers (in vivo)

[1] = biological target: T2, recombinant 11β-HSD1 protein (Homo sapiens, UniProt P28845); test: 11β-HSD1 SPA (Scintillation Proximity Assay) enzyme inhibition test, 384-well format; format: biochemical; conditions: 3H-cortisone and NADPH; cortisol formed measured by SPA; read-out: IC50 (concentration which inhibits 50% of the activity of 11β-HSD1)
T2 construct: made in house; host or cells: Saccharomyces cerevisiae
T2 sequence (P28845 whole entry, species assumed): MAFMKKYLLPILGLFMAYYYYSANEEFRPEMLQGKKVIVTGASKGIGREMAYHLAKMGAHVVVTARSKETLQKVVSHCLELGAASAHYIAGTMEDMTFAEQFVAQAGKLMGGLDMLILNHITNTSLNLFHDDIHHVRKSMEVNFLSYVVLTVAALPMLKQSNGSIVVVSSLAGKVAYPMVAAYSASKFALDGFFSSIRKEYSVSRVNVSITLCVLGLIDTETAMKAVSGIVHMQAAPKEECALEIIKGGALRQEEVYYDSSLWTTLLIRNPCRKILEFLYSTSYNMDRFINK
Excerpt: The compounds according to the invention formed the subject of pharmacological tests which make it possible to determine their inhibiting effect on the 11β-HSD1 enzyme, which is an enzyme which is involved in the metabolism of lipids or the metabolism of glucose.
These tests consisted in measuring the in vitro inhibiting activity of the compounds of the invention by virtue of an SPA (Scintillation Proximity Assay) test in 384-well format. The recombinant 11β-HSD1 protein was produced in the yeast S. cerevisiae. The reaction was carried out by incubating the enzyme in the presence of ^3H-cortisone and of NADPH, in the absence or in the presence of an increasing concentration of inhibitor. SPA beads coupled to an antimouse antibody, which are preincubated with anticortisol antibody, made it possible to measure the amount of cortisol formed during the reaction.
The inhibiting activity with regard to the enzyme 11β-HSD1 is given by the concentration which inhibits 50% of the activity of 11β-HSD1 (IC50).

T1 sequence (P28845 whole entry): as the sequence (P28845 whole entry, species assumed) above

| melting point | IC50 [1] | Compound | reduction of the intraocular pressure (IOP) (11βHSD1 in the eyes) |
| --- | --- | --- | --- |
| 181 °C |  | CN(C)C(=O)N1CCN(C(=O)N2CCC(c3cccnc3)C2)c2ccccc21.Cl (centres unmarked) |  |
| 191 °C |  | CCCCN1CCN(C(=O)N2CCC(c3cccnc3)C2)c2ccccc21.Cl (centres unmarked) |  |
| 201 °C |  | CC(=O)N1CCN(C(=O)N2CCC(c3cccnc3)C2)c2ccccc21.Cl (centres unmarked) |  |
| 53 to 59 °C |  | N#CC1(c2ccccc2)CCN(C(=O)N2CCCc3ccccc32)CC1 |  |
| 60 to 90 °C |  | Cl.O=C(N1CCC(c2cccnc2)C1)N1CCOc2ccccc21 (centres unmarked) |  |
| 273 °C |  | Cl.O=C(N1CCC(c2cccnc2)C1)N1CCOc2ccc(CO)cc21 (centres unmarked) |  |
| 121 °C |  | CCCN1CCN(C(=O)N2CCC(c3cccnc3)C2)c2ccccc21 (centres unmarked) (as salt: HCl) [compound 101] |  |
|  |  | CC1(C)[C@@H](OC(=O)CCC(=O)O)CC[C@]2(C)[C@H]3C(=O)C=C4[C@@H]5C[C@@](C)(C(=O)O)CC[C@]5(C)CC[C@@]4(C)[C@]3(C)CC[C@@H]12 [carbenoxolone] | 18% |
| 198 °C | 115 nM | Cl.O=C(N1CCC(c2ccncc2)CC1)N1CCCc2ccccc21 [compound 4, 1-[(4-(Pyridin-4-yl)piperidin-1-yl)carbonyl]-1,2,3,4-tetrahydroquinoline Hydrochloride] |  |
| 130 to 133 °C |  | O=C(N1CCC2(C=Cc3ccccc32)CC1)N1CCCc2ccccc21 [compound 15, 1′-(3,4-Dihydroquinolin-1(2H)-ylcarbonyl)spiro[indene-1,4′-piperidine]] |  |
| 52 to 65 °C | 43 nM | O=C(N1CCC2(CCCc3ccccc32)CC1)N1CCCc2ccccc21 [compound 18] |  |
| 63 to 68 °C |  | O=C(N1CCC(c2nc(-c3c(Cl)cccc3Cl)no2)CC1)N1CCCc2ccccc21 [compound 25, 1-({4-[3-(2,6-Dichlorophenyl)-1,2,4-oxadiazol-5-yl]piperidin-1-yl}carbonyl)-1,2,3,4-tetrahydroquinoline] |  |
|  | 39 nM | COc1cc(N2CCN(C(=O)N3CCC(c4cn[nH]c4)C3)c3ccccc32)ccc1C(=O)NC1CC1 (centres unmarked) [compound 78] |  |
|  | 90 nM | CCCN1CCN(C(=O)N2CCC(c3cccnc3)C2)c2ccccc21 (centres unmarked) [compound 101] |  |
| 239 °C |  | CS(=O)(=O)c1ccc(CN2CCN(C(=O)N3CCC(c4cn[nH]c4)C3)c3ccccc32)cc1 (centres unmarked) [compound 161, [4-(4-(Methanesulfonyl)benzyl)-3,4-dihydro-2H-quinoxalin-1-yl][3-(1H-pyrazol-4-yl)pyrrolidin-1-yl]methanone] |  |
| 174 °C | 57 nM | N#Cc1cccc(CN2CCN(C(=O)N3CCC(c4cn[nH]c4)C3)c3ccccc32)c1 (centres unmarked) [compound 162] |  |
| 251 °C |  | O=C(NN1CCCCC1)c1ccc(N2CCN(C(=O)N3CCC(c4cn[nH]c4)C3)c3ccccc32)cc1 (centres unmarked) [compound 172, N-(Piperidin-1-yl)-4-{4-[3-(1H-pyrazol-4-yl)pyrrolidine-1-carbonyl]-3,4-dihydro-2H-quinoxalin-1-yl}benzamide] |  |
| 100 °C |  | COc1cc(N2CCN(C(=O)N3CCC(c4cn[nH]c4)C3)c3ccccc32)ccc1C(=O)NC1CC1 (centres unmarked) [compound 178, N-Cyclopropyl-2-methoxy-4-{4-[3-(1H-pyrazol-4-yl)pyrrolidine-1-carbonyl]-3,4-dihydro-2H-quinoxalin-1-yl}benzamide] |  |
| 90 °C | 130 nM | NC(=O)c1ccc(N2CCN(C(=O)N3CCC(c4cn[nH]c4)C3)c3ccccc32)cn1 (centres unmarked) [compound 188] |  |
